Measured values reported in US8685439B2, “Method for the treatment and prevention of eyelid swelling” (Aciex Therapeutics, Inc., priority 2006, dated 2014).

Legend:
morning eyelid swelling [1] = assay: Treatment of morning eyelid swelling (eyelid edema), eyelid volume by 3D scanner, treated eye vs untreated eye; assay type: in vivo, human; conditions: for reduction of morning eyelid swelling (result in words): topical to one eye, other eye untreated, 3D scanner
Method: In this study, the efficacy of naphazoline 0.1% ophthalmic solution was evaluated for treatment for eyelid edema. The eyelid volume for 11 subjects participating in the study was recorded in the afternoon of Day 1 and again upon arrival to the clinic the following morning (Day 2). […] The natural progression of morning eyelid swelling, as measured using 3D scanning technology is depicted in FIG. 10. The increase ranged from 14 mm^3 to 659 mm^3. Subjects were then dosed with naphazoline 0.1% (vasoconstrictor) in the right eye and eyelid volume was assessed at 5, 10, 15, 30, and 120 minutes following treatment using a 3-D scanner. […] A summary of all the patient data is depicted if FIG. 3L.
In a preliminary study with a similar design to that described above, NaCl 5% ophthalmic solution was evaluated as a potential treatment for eyelid edema. […] Eyelid swelling was assessed using a 3-D scanner at 5, 10, 15, 20, 30, and 120 minutes post-treatment. […] In one subject, this reduction was pronounced and was present through the 120 minute assessment time point. In the remaining three patients, treatment was not effective.
A total of 6 subjects (male, between the ages of 25 and 29) were evaluated. At the start of the study, five (5) baseline scans were performed per subject and eye using a 3D scanner. The next day, subjects were asked to five (5) scans of each eye, identical to Visit 1, were then taken.
Subjects received the 2 drops (40 μl each) of the combination treatment, with one minute apart each drop in one eye and no treatment in the other eye. Five (5) scans of each eye were taken, identical to Visit 1, 20 minutes after second drop instillation. Subjects were asked to grade their eyelid swelling post treatment. Digital photos were also taken at baseline and at 20 minutes post treatment.

morning eyelid swelling [2] = assay: as above; assay type: in vivo, human; conditions: topical to one eye, other eye untreated

c1ccc2c(CC3=NCCN3)cccc2c1 [naphazoline 0.1%, naphazoline, reference compound]
reduction of morning eyelid swelling (result in words) (morning eyelid swelling [1]): demonstrated efficacy | subjects with greater decrease in eyelid volume in treatment eye than non-treatment eye (morning eyelid swelling [1]; up to the 30 minute timepoint): 9 out of 11 | subjects with greater decrease in eyelid volume in treatment eye than non-treatment eye (morning eyelid swelling [1]; up to the 120 minute timepoint): 7 out of 11 | reduction of morning eyelid swelling (result in words) (morning eyelid swelling [2]; listed as naphazoline 0.5% solution): caused a reduction of eyelid swelling in most subjects

[Cl-].[Na+] [NaCl 5% ophthalmic solution, sodium chloride]
patients in whom treatment was not effective (morning eyelid swelling [1]; 6 subjects): three | mean change from baseline versus negative controls (morning eyelid swelling [1]; FIG. 4G): numerically superior to negative controls, though the differences were not statistically significant | subjects with pronounced reduction in eyelid swelling (morning eyelid swelling [1]; present through the 120 minute assessment time point, 6 subjects): one | patients with a reduction in eyelid swelling (morning eyelid swelling [1]; through 15 minutes post-instillation, 6 subjects): Three | reduction of morning eyelid swelling (result in words) (morning eyelid swelling [1]): caused a reduction of eyelid swelling in several patients | reduction of morning eyelid swelling (result in words) (morning eyelid swelling [2]): some efficacy

OC[C@@H](O)[C@@H](O)[C@H](O)[C@H](O)CO [mannitol 12.5% solution, mannitol]
reduction of morning eyelid swelling (result in words) (morning eyelid swelling [1]): did reduce morning eyelid swelling

CNC[C@H](O)c1cccc(O)c1 [0.25% phenylephrine formulation, phenylephrine, reference compound]
reduction of morning eyelid swelling (result in words) (morning eyelid swelling [1]): did reduce morning eyelid swelling
